Laboratory results published in paper PMC9850727, “Benzoxazolone-5-Urea Derivatives as Human Soluble Epoxide Hydrolase (sEH) Inhibitors” (ACS Omega, 2023).

How the values were obtained:
[1] = biological target: T1, human recombinant sEH (Homo sapiens, UniProt P34913); test: Cell-free sEH activity assay (fluorescence-based, PHOME substrate); format: biochemical; details: for sEH activity % of control at 1 μM / sEH activity % of control at 10 μM: residual activity; for inhibition at 10 µM: inhibition as stated in text
T1 construct: made in house; host or cells: Sf9 cells infected with recombinant baculovirus (from Dr. Bruce Hammock, UC Davis)
T1 sequence (P34913 1-555): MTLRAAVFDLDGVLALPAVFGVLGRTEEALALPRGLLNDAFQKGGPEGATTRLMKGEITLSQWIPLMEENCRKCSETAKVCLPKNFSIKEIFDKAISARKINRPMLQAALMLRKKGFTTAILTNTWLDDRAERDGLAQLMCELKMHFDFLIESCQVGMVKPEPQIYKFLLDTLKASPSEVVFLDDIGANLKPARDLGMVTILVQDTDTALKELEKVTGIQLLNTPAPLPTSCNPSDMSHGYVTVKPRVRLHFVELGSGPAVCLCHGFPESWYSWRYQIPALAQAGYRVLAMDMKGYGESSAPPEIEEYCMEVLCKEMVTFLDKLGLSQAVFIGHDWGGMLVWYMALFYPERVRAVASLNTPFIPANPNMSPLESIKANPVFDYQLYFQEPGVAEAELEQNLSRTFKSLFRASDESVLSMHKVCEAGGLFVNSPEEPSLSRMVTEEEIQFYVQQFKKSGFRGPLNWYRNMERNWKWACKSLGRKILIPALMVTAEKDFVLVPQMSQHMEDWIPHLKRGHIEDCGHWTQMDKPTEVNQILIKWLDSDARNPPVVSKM
From the text: Inspired by the reported crystallographic screening studies,[12],[13],[15] a series of aryl amide (12, 15–21) or urea (31–39) derivatives with a benzoxazolone head group were synthesized and assessed for inhibition of human recombinant sEH in a cell-free activity assay[27] (Tables 1 and 2). […] Consequently, compounds in which the amide group is attached to the benzoxazolone ring through NH could outperform their direct reversed analogues by more favorable interactions in the central pocket of sEH. In addition, simple methylation of the benzoxazolone NH in 17–18 engendered noticeable differences in sEH inhibition relative to the unmethylated counterparts 15–16, implying that a free NH with H-bond donor property at this location is also important for the observed potency. Subsequently, the positioning of the amide group at the 5-position of the benzoxazolone ring also retained the inhibitory activity.
Human recombinant sEH was expressed and purified as published before.[31] Briefly, Sf9 cells were infected with a recombinant baculovirus (obtained from Dr. Bruce Hammock, University of California, Davis, CA). Following 72 h of transfection, the cells were centrifuged and then sonicated (3 × 10 s at 4 °C) in lysis buffer comprising glycerol (10%), NaHPO4 (50 mM, pH 8), leupeptin (10 μg/mL), NaCl (300 mM), phenylmethanesulfonyl fluoride (1 mM), EDTA (1 mM), and soybean trypsin inhibitor (60 μg/mL). After centrifugation at 100,000g (60 min, 4 °C), the obtained supernatants were subjected to a benzylthio-sepharose-affinity chromatography and eluted with 4-fluorochalcone oxide in PBS containing 1 mM DTT and 1 mM EDTA for purification of sEH. The enzyme was dialyzed and concentrated (Millipore Amicon-Ultra-15 centrifugal filter), and the solution was further assayed for total protein content by a protein detection kit (Bio-Rad Laboratories, Munich, Germany). The epoxide hydrolase activity was measured using a fluorescence-based assay, as reported before.[27] In brief, sEH was diluted in Tris buffer (25 mM, pH 7) containing BSA (0.1 mg/mL) to a suitable enzyme concentration and pretreated with test compounds or 0.1% DMSO as vehicle for 10 min at room temperature. To start the reaction, 50 μM of the PHOME substrate (3-phenyl-cyano(6-methoxy-2-naphthalenyl)methyl ester-2-oxiraneacetic acid), a nonfluorescent compound that is enzymatically converted by sEH into fluorescent 6-methoxy-naphtaldehyde, was added at RT. The reaction was stopped by addition of ZnSO4 (200 mM) after 60 min, and fluorescence was measured (λem 465 nm, λex 330 nm) by employing a NOVOstar microplate reader (BMG LABTECH GmbH, Ortenberg, Germany). If required, the potential fluorescence of test compounds was subtracted from the readout.

[2] = mean ± SEM, n = 3, benzoxazolone-amides (Table 1)
[3] = cell-free assay, benzoxazolone-amides (Table 1)
[4] = mean ± SEM, n = 3, benzoxazolone-ureas (Table 2)
[5] = cell-free assay, mean ± SEM, n = 3, benzoxazolone-ureas (Table 2)

Row | sEH activity % of control at 1 μM [1, 2] | inhibition at 10 µM [1] | sEH activity % of control at 10 μM [1, 2] | IC50 [1, 3] | melting point | sEH activity % of control at 1 μM [1, 4] | sEH activity % of control at 10 μM [1, 4] | IC50 [1, 5] | sEH inhibition (in words) ([1]; cell-free assay) | Structure (SMILES)
1 | 49.8 ± 6.3 % of control | 85% | 15.2 ± 5.9 % of control | ~1000 nM | 231.8 to 233 °C |  |  |  |  | O=C(Nc1ccc2[nH]c(=O)oc2c1)c1ccc(Oc2ccccc2)cc1 [Compound 16, N-(2-Oxo-2,3-dihydro-1,3-benzoxazol-6-yl)-4-phenoxybenzamide]
2 | 47.4 ± 7.1 % of control |  | 14.4 ± 6.8 % of control | ~1000 nM | 231 to 233 °C |  |  |  |  | O=C(Nc1ccc2oc(=O)[nH]c2c1)c1ccc(Oc2ccccc2)cc1 [Compound 21, N-(2-Oxo-2,3-dihydro-1,3-benzoxazol-5-yl)-4-phenoxybenzamide]
3 | 91.0 ± 6.1 % of control |  | 84.4 ± 3.8 % of control | > 10000 nM | > 300 °C |  |  |  | devoid of sEH inhibition | O=C(Nc1ccc(OCc2ccccc2)cc1)c1ccc2[nH]c(=O)oc2c1 [Compound 12, N-[4-(Benzyloxy)phenyl]-2-oxo-2,3-dihydro-1,3-benzoxazole-6-carboxamide]
4 | 68.2 ± 6.6 % of control |  | 30.0 ± 10.5 % of control | < 10000 nM | 260.7 to 262.8 °C |  |  |  |  | O=C(Nc1ccc2oc(=O)[nH]c2c1)c1ccc(OCc2ccccc2)cc1 [Compound 20, 4-(Benzyloxy)-N-(2-oxo-2,3-dihydro-1,3-benzoxazol-5-yl)benzamide]
5 | 105.8 ± 15.9 % of control |  | 115.1 ± 4.9 % of control | > 10000 nM | 251.8 to 253.7 °C |  |  |  |  | Cn1c(=O)oc2cc(NC(=O)c3ccc(OCc4ccccc4)cc3)ccc21 [Compound 17, 4-(Benzyloxy)-N-(3-methyl-2-oxo-2,3-dihydro-1,3-benzoxazol-6-yl)benzamide]
6 | 67.8 ± 10.8 % of control | 70% | 28.9 ± 8.1 % of control | < 10000 nM | 256.6 to 259 °C |  |  |  |  | O=C(Nc1ccc2[nH]c(=O)oc2c1)c1ccc(OCc2ccccc2)cc1 [Compound 15, 4-(Benzyloxy)-N-(2-oxo-2,3-dihydro-1,3-benzoxazol-6-yl)benzamide]

The remaining lines, values behind:

Row | Structure (SMILES) | sEH activity % of control at 1 μM [1, 2] | inhibition at 10 µM [1] | sEH activity % of control at 10 μM [1, 2] | IC50 [1, 3] | melting point | sEH activity % of control at 1 μM [1, 4] | sEH activity % of control at 10 μM [1, 4] | IC50 [1, 5] | sEH inhibition (in words) ([1]; cell-free assay)
7 | O=C(NCc1ccccc1Cl)Nc1ccc2oc(=O)[nH]c2c1 [Compound 31, 1-[(2-Chlorophenyl)methyl]-3-(2-oxo-2,3-dihydro-1,3-benzoxazol-5-yl)urea] |  |  |  |  | 242.5 °C (dec.) | 3.1 ± 6.2 % of control | 5.8 ± 6.2 % of control | 9.9 ± 2.9 nM | 
8 | O=C(NCc1ccc(C(F)(F)F)cc1)Nc1ccc2oc(=O)[nH]c2c1 [Compound 37, 3-(2-Oxo-2,3-dihydro-1,3-benzoxazol-5-yl)-1-{[4-(trifluoromethyl)phenyl]methyl}urea] |  |  |  |  | 213.6 °C (dec.) | 12.3 ± 2.5 % of control | 1.1 ± 1.8 % of control | 53 ± 8 nM | 
9 | O=C(NCc1cccc(Cl)c1)Nc1ccc2oc(=O)[nH]c2c1 [Compound 34, 1-[(3-Chlorophenyl)methyl]-3-(2-oxo-2,3-dihydro-1,3-benzoxazol-5-yl)urea] |  |  |  |  | 244.5 °C (dec.) | 18.6 ± 5.1 % of control | 7.5 ± 3.4 % of control | 80 ± 23 nM | 
10 | O=C(NCc1ccc(F)cc1)Nc1ccc2oc(=O)[nH]c2c1 [Compound 35, 1-[(4-Fluorophenyl)methyl]-3-(2-oxo-2,3-dihydro-1,3-benzoxazol-5-yl)urea] |  |  |  |  | 249.3 °C (dec.) | 62.8 ± 3.3 % of control | 5.2 ± 3.6 % of control | 570 ± 15 nM | 
11 | Cn1c(=O)oc2cc(NC(=O)c3ccc(Oc4ccccc4)cc3)ccc21 [Compound 18, N-(3-Methyl-2-oxo-2,3-dihydro-1,3-benzoxazol-6-yl)-4-phenoxybenzamide] | 83.7 ± 9.8 % of control |  | 91.5 ± 2.8 % of control | > 10000 nM | 229.1 to 231.1 °C |  |  |  | 
12 | O=C(NCc1cccc(F)c1F)Nc1ccc2oc(=O)[nH]c2c1 [Compound 39, 1-[(2,3-Difluorophenyl)methyl]-3-(2-oxo-2,3-dihydro-1,3-benzoxazol-5-yl)urea] |  |  |  |  | 259.9 °C (dec.) | 14.2 ± 2.7 % of control | 0.8 ± 2.0 % of control | 33 ± 10 nM | 
13 | O=C(NCc1ccc(Cl)cc1)Nc1ccc2oc(=O)[nH]c2c1 [Compound 36, 1-[(4-Chlorophenyl)methyl]-3-(2-oxo-2,3-dihydro-1,3-benzoxazol-5-yl)urea] |  |  |  |  | 251 °C (dec.) | 18.6 ± 2.6 % of control | 1.9 ± 2.4 % of control | 120 ± 20 nM | 
14 | O=C(NCc1ccccc1C(F)(F)F)Nc1ccc2oc(=O)[nH]c2c1 [Compound 32, 3-(2-Oxo-2,3-dihydro-1,3-benzoxazol-5-yl)-1-{[2-(trifluoromethyl)phenyl]methyl}urea] |  |  |  |  | 237.8 °C (dec.) | 7.1 ± 5.8 % of control | 4.7 ± 8.0 % of control | 2 ± 0.42 nM | 
